# Data published in patent US20070021385A1, “Compositions and methods for wood preservation” (priority 2005, published 2007).
# Tests used:
# brown rots or white rots = assay: Accelerated decay testing in the lab; details: confirmed by accelerated decay testing in the lab
# From the text: Provided herein is an organic composition and method for use thereof in treatment of cellulosic material, more particularly wood. The composition comprises an azole or quaternary ammonium fungicide compound, and a pyrethroid insecticide. The composition imparts to the treated wood resistance to both fungi and insects. […] This has been confirmed by accelerated decay testing in the lab.
# decay fungi = assay: AWPA E7-01 field stake test, decay ratings, Gainesville, Florida; assay type: in vivo; design: Average Decay Ratings: scale not given here
# Experimental: (§1) Preservative treating solutions were prepared by the mixing the concentrates in Example 1 with ethanol. The treated stakes were installed in Gainesville, Fla. for field performance evaluation following the procedure described in American Wood Preservers' Association (AWPA) Standard E7-01: “Standard Method of Evaluating Wood Preservatives by Field Tests with Stakes”.
# (§2) Preservative treating solutions were prepared by the mixing the concentrates in Example 1 with toluene. The treated stakes were installed in Gainesville, Fla. for field performance evaluation following the procedure described in American Wood Preservers' Association (AWPA) Standard E7-01: “Standard Method of Evaluating Wood Preservatives by Field Tests with Stakes”.
# Preservative treating solutions were prepared by the mixing the concentrates in Example 2 and 13. The treated stakes were installed in Gainesville, Fla. for field performance evaluation following the procedure described in American Wood Preservers' Association (AWPA) Standard E7-01: “Standard Method of Evaluating Wood Preservatives by Field Tests with Stakes”. […]
# (§3) Preservative treating solutions were prepared by the mixing the concentrates in Example 1 with white spirits. The treated stakes were installed in Gainesville, Fla. for field performance evaluation following the procedure described in American Wood Preservers' Association (AWPA) Standard E7-01: “Standard Method of Evaluating Wood Preservatives by Field Tests with Stakes”.
# termites = assay: AWPA E7-01 field stake test, termite ratings, Gainesville, Florida; assay type: in vivo; design: Average Termite Ratings: scale not given here
# Experimental: as §1, §2
# Preservative treating solutions were prepared by the mixing the concentrates in Example 2 and 13. The treated stakes were installed in Gainesville, Fla. for field performance evaluation following the procedure described in American Wood Preservers' Association (AWPA) Standard E7-01: “Standard Method of Evaluating Wood Preservatives by Field Tests with Stakes”.
# as §3
smiles,measurement,setting,value
CC1(C)C(C=C(Cl)Cl)C1C(=O)OCc1cccc(Oc2ccccc2)c1 (centres unmarked) [permethrin],fungicidal activity against brown rots or white rots,brown rots or white rots,do not have fungicidal activity
CC1(C)C(C=C(Cl)Cl)C1C(=O)OC(C#N)c1cccc(Oc2ccccc2)c1 (centres unmarked) [cypermethrin],fungicidal activity against brown rots or white rots,brown rots or white rots,do not have fungicidal activity
Cc1c(COC(=O)[C@@H]2[C@H](/C=C(\Cl)C(F)(F)F)C2(C)C)cccc1-c1ccccc1 (racemic) [bifenthrin],fungicidal activity against brown rots or white rots,brown rots or white rots,do not have fungicidal activity
"CC(C)(C)C(O)(CCc1ccc(Cl)cc1)Cn1cncn1 (racemic) [Tebuconazole, (RS)-1-p-chlorophenyl-4,4-dimethyl-3-(1H -1,2,4-triazol-1-ylmethyl)pentan-3-ol]",protection / bio-efficacy against fungal attack (in words),"decay fungi; different retention levels, text summary of Table 1A",certain degree of protection against fungal attack
same,Average Decay Ratings,"decay fungi; retention 0.32 kg/m^3, 12 months, Table 1A, Example 14 ethanol",8.2
same,Average Decay Ratings,"decay fungi; retention 0.32 kg/m^3, 12 months, Table 2A, Example 15 toluene",8.2
same,Average Decay Ratings,"decay fungi; retention 0.32 kg/m^3, 12 months, Table 3A, Example 16 (concentrates of Examples 2 and 13)",8.2
same,Average Decay Ratings,"decay fungi; retention 0.32 kg/m^3, 24 months, Table 1A, Example 14 ethanol",2.6
same,Average Decay Ratings,"decay fungi; retention 0.32 kg/m^3, 24 months, Table 2A, Example 15 toluene",2.6
same,Average Decay Ratings,"decay fungi; retention 0.32 kg/m^3, 24 months, Table 3A, Example 16 (concentrates of Examples 2 and 13)",2.6
same,Average Decay Ratings,"decay fungi; retention 0.32 kg/m^3, 36 months, Table 1A, Example 14 ethanol",0.0
same,Average Decay Ratings,"decay fungi; retention 0.32 kg/m^3, 36 months, Table 2A, Example 15 toluene",0.0
same,Average Decay Ratings,"decay fungi; retention 0.32 kg/m^3, 36 months, Table 3A, Example 16 (concentrates of Examples 2 and 13)",0.0
same,Average Decay Ratings,"decay fungi; retention 0.32 kg/m^3, 48 months, Table 1A, Example 14 ethanol",0.0
same,Average Decay Ratings,"decay fungi; retention 0.32 kg/m^3, 48 months, Table 2A, Example 15 toluene",0.0
same,Average Decay Ratings,"decay fungi; retention 0.32 kg/m^3, 48 months, Table 3A, Example 16 (concentrates of Examples 2 and 13)",0.0
same,Average Decay Ratings,"decay fungi; retention 0.48 kg/m^3, 12 months, Table 1A, Example 14 ethanol",5.8
same,Average Decay Ratings,"decay fungi; retention 0.48 kg/m^3, 12 months, Table 2A, Example 15 toluene",5.8
same,Average Decay Ratings,"decay fungi; retention 0.48 kg/m^3, 12 months, Table 3A, Example 16 (concentrates of Examples 2 and 13)",5.8
same,Average Decay Ratings,"decay fungi; retention 0.48 kg/m^3, 24 months, Table 1A, Example 14 ethanol",0.8
same,Average Decay Ratings,"decay fungi; retention 0.48 kg/m^3, 24 months, Table 2A, Example 15 toluene",0.8
same,Average Decay Ratings,"decay fungi; retention 0.48 kg/m^3, 24 months, Table 3A, Example 16 (concentrates of Examples 2 and 13)",0.8
same,Average Decay Ratings,"decay fungi; retention 0.48 kg/m^3, 36 months, Table 1A, Example 14 ethanol",0.0
same,Average Decay Ratings,"decay fungi; retention 0.48 kg/m^3, 36 months, Table 2A, Example 15 toluene",0.0
same,Average Decay Ratings,"decay fungi; retention 0.48 kg/m^3, 36 months, Table 3A, Example 16 (concentrates of Examples 2 and 13)",0.0
same,Average Decay Ratings,"decay fungi; retention 0.48 kg/m^3, 48 months, Table 1A, Example 14 ethanol",0.0
same,Average Decay Ratings,"decay fungi; retention 0.48 kg/m^3, 48 months, Table 2A, Example 15 toluene",0.0
same,Average Decay Ratings,"decay fungi; retention 0.48 kg/m^3, 48 months, Table 3A, Example 16 (concentrates of Examples 2 and 13)",0.0
same,Average Decay Ratings,"decay fungi; retention 0.64 kg/m^3, 12 months, Table 1A, Example 14 ethanol",8.7
same,Average Decay Ratings,"decay fungi; retention 0.64 kg/m^3, 12 months, Table 2A, Example 15 toluene",8.7
same,Average Decay Ratings,"decay fungi; retention 0.64 kg/m^3, 12 months, Table 3A, Example 16 (concentrates of Examples 2 and 13)",8.7
same,Average Decay Ratings,"decay fungi; retention 0.64 kg/m^3, 24 months, Table 1A, Example 14 ethanol",1.2
same,Average Decay Ratings,"decay fungi; retention 0.64 kg/m^3, 24 months, Table 2A, Example 15 toluene",1.2
same,Average Decay Ratings,"decay fungi; retention 0.64 kg/m^3, 24 months, Table 3A, Example 16 (concentrates of Examples 2 and 13)",1.2
same,Average Decay Ratings,"decay fungi; retention 0.64 kg/m^3, 36 months, Table 1A, Example 14 ethanol",0.0
same,Average Decay Ratings,"decay fungi; retention 0.64 kg/m^3, 36 months, Table 2A, Example 15 toluene",0.0
same,Average Decay Ratings,"decay fungi; retention 0.64 kg/m^3, 36 months, Table 3A, Example 16 (concentrates of Examples 2 and 13)",0.0
same,Average Decay Ratings,"decay fungi; retention 0.64 kg/m^3, 48 months, Table 1A, Example 14 ethanol",0.0
same,Average Decay Ratings,"decay fungi; retention 0.64 kg/m^3, 48 months, Table 2A, Example 15 toluene",0.0
same,Average Decay Ratings,"decay fungi; retention 0.64 kg/m^3, 48 months, Table 3A, Example 16 (concentrates of Examples 2 and 13)",0.0
same,insect / termite attack on treated wood (in words),"termites; different retention levels, text summary of Table 1B",severe insect attack
same,Average Termite Ratings,"termites; retention 0.32 kg/m^3, 12 months, Table 1B, Example 14 ethanol",4.2
same,Average Termite Ratings,"termites; retention 0.32 kg/m^3, 12 months, Table 2B, Example 15 toluene",4.2
same,Average Termite Ratings,"termites; retention 0.32 kg/m^3, 12 months, Table 3B, Example 16 (concentrates of Examples 2 and 13)",4.2
same,Average Termite Ratings,"termites; retention 0.32 kg/m^3, 24 months, Table 1B, Example 14 ethanol",0.6
same,Average Termite Ratings,"termites; retention 0.32 kg/m^3, 24 months, Table 2B, Example 15 toluene",0.6
same,Average Termite Ratings,"termites; retention 0.32 kg/m^3, 24 months, Table 3B, Example 16 (concentrates of Examples 2 and 13)",0.6
same,Average Termite Ratings,"termites; retention 0.32 kg/m^3, 36 months, Table 1B, Example 14 ethanol",0.0
same,Average Termite Ratings,"termites; retention 0.32 kg/m^3, 36 months, Table 2B, Example 15 toluene",0.0
same,Average Termite Ratings,"termites; retention 0.32 kg/m^3, 36 months, Table 3B, Example 16 (concentrates of Examples 2 and 13)",0.0
same,Average Termite Ratings,"termites; retention 0.32 kg/m^3, 48 months, Table 1B, Example 14 ethanol",0.0
same,Average Termite Ratings,"termites; retention 0.32 kg/m^3, 48 months, Table 2B, Example 15 toluene",0.0
same,Average Termite Ratings,"termites; retention 0.32 kg/m^3, 48 months, Table 3B, Example 16 (concentrates of Examples 2 and 13)",0.0
same,Average Termite Ratings,"termites; retention 0.48 kg/m^3, 12 months, Table 1B, Example 14 ethanol",4.5
same,Average Termite Ratings,"termites; retention 0.48 kg/m^3, 12 months, Table 2B, Example 15 toluene",4.5
same,Average Termite Ratings,"termites; retention 0.48 kg/m^3, 12 months, Table 3B, Example 16 (concentrates of Examples 2 and 13)",4.5
same,Average Termite Ratings,"termites; retention 0.48 kg/m^3, 24 months, Table 1B, Example 14 ethanol",1.2
same,Average Termite Ratings,"termites; retention 0.48 kg/m^3, 24 months, Table 2B, Example 15 toluene",1.2
same,Average Termite Ratings,"termites; retention 0.48 kg/m^3, 24 months, Table 3B, Example 16 (concentrates of Examples 2 and 13)",1.2
same,Average Termite Ratings,"termites; retention 0.48 kg/m^3, 36 months, Table 1B, Example 14 ethanol",0.0
same,Average Termite Ratings,"termites; retention 0.48 kg/m^3, 36 months, Table 2B, Example 15 toluene",0.0
same,Average Termite Ratings,"termites; retention 0.48 kg/m^3, 36 months, Table 3B, Example 16 (concentrates of Examples 2 and 13)",0.0
same,Average Termite Ratings,"termites; retention 0.48 kg/m^3, 48 months, Table 1B, Example 14 ethanol",0.0
same,Average Termite Ratings,"termites; retention 0.48 kg/m^3, 48 months, Table 2B, Example 15 toluene",0.0
same,Average Termite Ratings,"termites; retention 0.48 kg/m^3, 48 months, Table 3B, Example 16 (concentrates of Examples 2 and 13)",0.0
same,Average Termite Ratings,"termites; retention 0.64 kg/m^3, 12 months, Table 1B, Example 14 ethanol",4.8
same,Average Termite Ratings,"termites; retention 0.64 kg/m^3, 12 months, Table 2B, Example 15 toluene",4.8
same,Average Termite Ratings,"termites; retention 0.64 kg/m^3, 12 months, Table 3B, Example 16 (concentrates of Examples 2 and 13)",4.8
same,Average Termite Ratings,"termites; retention 0.64 kg/m^3, 24 months, Table 1B, Example 14 ethanol",2.0
same,Average Termite Ratings,"termites; retention 0.64 kg/m^3, 24 months, Table 2B, Example 15 toluene",2.0
same,Average Termite Ratings,"termites; retention 0.64 kg/m^3, 24 months, Table 3B, Example 16 (concentrates of Examples 2 and 13)",2.0
same,Average Termite Ratings,"termites; retention 0.64 kg/m^3, 36 months, Table 1B, Example 14 ethanol",0.0
same,Average Termite Ratings,"termites; retention 0.64 kg/m^3, 36 months, Table 2B, Example 15 toluene",0.0
same,Average Termite Ratings,"termites; retention 0.64 kg/m^3, 36 months, Table 3B, Example 16 (concentrates of Examples 2 and 13)",0.0
same,Average Termite Ratings,"termites; retention 0.64 kg/m^3, 48 months, Table 1B, Example 14 ethanol",0.0
same,Average Termite Ratings,"termites; retention 0.64 kg/m^3, 48 months, Table 2B, Example 15 toluene",0.0
same,Average Termite Ratings,"termites; retention 0.64 kg/m^3, 48 months, Table 3B, Example 16 (concentrates of Examples 2 and 13)",0.0
